Source: US12281225B2, “Process for preparing stable polymers containing vinylimidazole” (BASF SE, priority 2018, dated 2025)

What was measured:
[1] = test system: Yeast: Candida albicans, Candida valida, Rhodotorula rura, Saccharomyces cerevisiae; assay: Preservation test with periodic inoculation, yeast assessment; format: cell-based; details: sample stored 60 d at 40° C.
Description: Microbiological results at the start (freshly formulated, i.e. 4-week test series is started immediately) and after 60 days of storage at 40° C. (i.e. the 4-week microbial testing is started with the sample stored at 40° C. for 60 days)
The test described below is carried out in order to ascertain the preserving effect of chemical preservatives in aqueous products and systems, the principle of the described method reflecting the efficacy of chemical preservatives with respect to pot-maintenance of aqueous products/systems under conditions corresponding to the use of laundry products/consumer products by the consumer. For this purpose, the preservatives to be tested are added in those concentrations which correspond to from the literature or to the manufacturer data from the suppliers (e.g. Thor, Speyer). In said test, our orientation was toward the upper range, which, with the exception of VI-containing polymers, had always led to excellent results in the case of aqueous polymers for laundry.
A constant microorganism load is achieved by periodic inoculation of the test batches. Before the swabs of each batch made respectively immediately in parallel with the inoculation. The assessment is made on the basis of the microbial growth of the streaks.
When carrying out said tests, 25 g of the polymer to be tested are weighed in each case into a vessel with a screw cap. The preservatives to be tested are each added in separate batches according to the specified use concentrations. An unpreserved product sample was used in each case for the growth control. Two days after the addition of the preservative, the samples are infected with 0.5 ml of inoculum (2% w/w). The titer of this inoculant solution is 10^9 organisms per ml. The following microorganisms are the test organisms for the preservation test:
• Escherichia coli • Staphylococcus aureus • Pseudomonas aeruginosa • Pseudomonas putida • Burkholderia cepacia • Alcaligenes faecalis Yeast: • Candida albicans • Candida valida • Rhodotorula rura • Saccharomyces cerevisiae
The test batches are inoculated four times altogether and once a week and are streaked on an agar plate once a week; the first streaking is done immediately before the new inoculation. Microbial growth on the agar surface is assessed after a three-day incubation at 25° C. As a precaution, negative swabs are additionally observed for a further three days and reassessed. The preserving effect is effected in a semiquantitative method via the growth of the individual streaks in accordance with the assessment from − via + to +++. The preservative result is repeatedly demonstrably robust, i.e. +++− defines the microbial growth.
When assessing the results, it is assumed that a preservative can be regarded as good if there are batches under the above-described laboratory conditions for a period of four weeks without microbial invasion of the sample, and that, even after the fourth inoculation, no microbial attacks occur growth can be identified. • −−: no growth • −: slight growth, max. 100 colonies • 0: moderate growth, max. 400 colonies • +: uniform growth with individual colonies still easily identifiable • ++: strong growth; too many colonies to be counted, already some extensive growth

[2] = Iodine color number according to DIN 6162:2014-09; format: physicochemical
[3] = Analysis of active substance: preservative concentration before and after storage in VI-containing polymer solution; format: physicochemical; details: for active-substance concentration, 0 d, RT: before storage; for active-substance concentration, 14 d, 40° C.: storage 14 d at 40° C.; for active-substance concentration, 28 d, 40° C.: storage 28 d at 40° C.; for active-substance concentration, 60 d 40° C.: storage 60 d at 40° C.
Description: Stability of Preservatives in VI-Containing Polymers:
The following stabilizers for VI-containing polymers (here: aqueous solution of a copolymer of vinylpyrrolidone and vinylimidazole) were tested.
MIT, BIT, CMIT, OIT, DCOIT and iodopropynyl butyl carbamate were determined by RP chromatography with UV detection after dilution of the sample to be tested. An RP18 column was used for this purpose, with an eluent composed of an acid-methanol mixture under isocratic conditions.

[4] = Polymer P5 (HP56) with stabilizer

benzalkonium chloride [BAC]
60 d 40° C., yeast assess., 4th inoculation ([1]; Polymer P1): − (slight growth, max. 100 colonies) | 60 d 40° C., yeast assess., 4th inoculation ([1]; Polymer P2): − (slight growth, max. 100 colonies) | 60 d 40° C., yeast assess., 4th inoculation ([1]; Polymer P3): − (slight growth, max. 100 colonies) | Iodine color number, 60 d 40° C. ([2]; Polymer P1 with stabilizer): 2.8 | Iodine color number, start ([2]; Polymer P1 with stabilizer): 2.6 | Iodine color number, 60 d 40° C. ([2]; Polymer P2 with stabilizer): 3.2 | Iodine color number, start ([2]; Polymer P2 with stabilizer): 3.0 | Iodine color number, 60 d 40° C. ([2]; Polymer P3 with stabilizer): 3.3 | Iodine color number, start ([2]; Polymer P3 with stabilizer): 3.2 | Iodine color number, 60 d 40° C. ([2]; Polymer P4 with stabilizer): 3.3 | Iodine color number, start ([2]; Polymer P4 with stabilizer): 3.2 | Iodine color number, 60 d 40° C. [2, 4]: 3.3 | Iodine color number, start [2, 4]: 3.3 | Iodine color number, 60 d 40° C. ([2]; Polymer P6 with stabilizer): 3.4 | Iodine color number, start ([2]; Polymer P6 with stabilizer): 3.3 | Iodine color number, 60 d 40° C. ([2]; Polymer P7 with stabilizer): 3.4 | Iodine color number, start ([2]; Polymer P7 with stabilizer): 3.3 | Iodine color number, 60 d 40° C. ([2]; Polymer P8 with stabilizer): 3.4 | Iodine color number, start ([2]; Polymer P8 with stabilizer): 3.3 | Iodine color number, 60 d 40° C. ([2]; Polymer P9 with stabilizer): 4.0 | Iodine color number, start ([2]; Polymer P9 with stabilizer): 3.7 | active-substance concentration, 0 d, RT ([3]; in Polymer P1): 1000 ppm | active-substance concentration, 14 d, 40° C. ([3]; in Polymer P1): 990 ppm | active-substance concentration, 28 d, 40° C. ([3]; in Polymer P1): 990 ppm | active-substance concentration, 60 d 40° C. ([3]; in Polymer P1): 970 ppm | active-substance concentration, 0 d, RT ([3]; in Polymer P2): 1000 ppm | active-substance concentration, 14 d, 40° C. ([3]; in Polymer P2): 990 ppm | active-substance concentration, 28 d, 40° C. ([3]; in Polymer P2): 990 ppm | active-substance concentration, 60 d 40° C. ([3]; in Polymer P2): 970 ppm | active-substance concentration, 0 d, RT ([3]; in Polymer P3): 1000 ppm | active-substance concentration, 14 d, 40° C. ([3]; in Polymer P3): 970 ppm | active-substance concentration, 28 d, 40° C. ([3]; in Polymer P3): 973 ppm | active-substance concentration, 60 d 40° C. ([3]; in Polymer P3): 967 ppm | active-substance concentration, 0 d, RT ([3]; in Polymer P4): 1000 ppm | active-substance concentration, 14 d, 40° C. ([3]; in Polymer P4): 1000 ppm | active-substance concentration, 28 d, 40° C. ([3]; in Polymer P4): 991 ppm | active-substance concentration, 60 d 40° C. ([3]; in Polymer P4): 977 ppm | active-substance concentration, 0 d, RT ([3]; in Polymer P5 (HP56)): 1000 ppm | active-substance concentration, 14 d, 40° C. ([3]; in Polymer P5 (HP56)): 990 ppm | active-substance concentration, 28 d, 40° C. ([3]; in Polymer P5 (HP56)): 90 ppm | active-substance concentration, 60 d 40° C. ([3]; in Polymer P5 (HP56)): 970 ppm | active-substance concentration, 0 d, RT ([3]; in Polymer P6): 1000 ppm | active-substance concentration, 14 d, 40° C. ([3]; in Polymer P6): 990 ppm | active-substance concentration, 28 d, 40° C. ([3]; in Polymer P6): 981 ppm | active-substance concentration, 60 d 40° C. ([3]; in Polymer P6): 976 ppm | active-substance concentration, 0 d, RT ([3]; in Polymer P7): 1000 ppm | active-substance concentration, 14 d, 40° C. ([3]; in Polymer P7): 988 ppm | active-substance concentration, 28 d, 40° C. ([3]; in Polymer P7): 985 ppm | active-substance concentration, 60 d 40° C. ([3]; in Polymer P7): 979 ppm | active-substance concentration, 0 d, RT ([3]; in Polymer P8): 1000 ppm | active-substance concentration, 14 d, 40° C. ([3]; in Polymer P8): 990 ppm | active-substance concentration, 28 d, 40° C. ([3]; in Polymer P8): 990 ppm | active-substance concentration, 60 d 40° C. ([3]; in Polymer P8): 970 ppm | active-substance concentration, 0 d, RT ([3]; in Polymer P9): 1000 ppm | active-substance concentration, 14 d, 40° C. ([3]; in Polymer P9): 990 ppm | active-substance concentration, 28 d, 40° C. ([3]; in Polymer P9): 985 ppm | active-substance concentration, 60 d 40° C. ([3]; in Polymer P9): 975 ppm
